# Target: T1, IGF-1R Ba/F3 (Homo sapiens, UniProt P08069)
# T1 construct: fused on or other part: TEL- (or BCR-) IGF-1R in Ba/F3: the kinase part holds the site
# Experiment: Ba/F3 Cell Viability Inhibition Assay (IGF-1R Ba/F3)
# Type: cell-based, murine
# Conditions: Tel-TK transformed Ba/F3 cells, 48 hours, Britelite luminescence
# Excerpt: The IC50 of a drug may be determined constructing a dose-response curve and examining the effect of different concentrations of antagonist on reversing agonist activity. IC50 values may be calculated for a given antagonist by determining the concentration needed to inhibit half of the maximum biological response of the agonist. To calculate IC50 values, a series of dose-response data (e.g., drug concentrations x1, x2, . . . , xn and growth inhibition y1, y2, . . . , yn, the values of y are in the range of 0-1) is generated. IC50 values may be determined by a computer-aided system using the formula: y=D+((A−D)/(1+10^(x-log(IC50)B) • where A is the ratio of growth inhibition between lowest drug concentration and control; B is the slope of sigmoidal curvel; and D is the ratio of growth inhibition between highest drug concentration and control.
# Ba/F3 is a murine IL-3-dependent pro-B lymphoma cell line. Parental Ba/F3 cells are used to generate a panel of sublines whose proliferation and survival is rendered IL-3-independent by stable transduction with individual tyrosine kinases activated by fusion with the amino-terminal portion of TEL (amino acid 1-375) or BCR. In order to generate Ba/F3 cell lines transformed by Tel-Tyrosine Kinase (TK) fusions, parental Ba/F3 cells are infected with a retrovirus harboring each TEL-fusion kinase and subjected to puromycin selection and IL-3 withdrawal to obtain IL-3-independent, transformed Ba/F3 cells.
# Each transformed Ba/F3 cells are cultured in RPMI-1640 media (Gibco Cat #11875093, Carlsbad, Calif.) supplemented with 10% FBS (Hyclone Cat #SV30014.03, Logan, Utah), 4.5 g/L glucose (Sigma #G5400, St. Louis, Mo.), 1.5 g/L sodium bicarbonate (Biowhittaker #17-613E, Walkersville, Md.) and Pen/Strep (Gibco #10378-016, Carlsbad, Calif.). Cells are splitted twice weekly.
# The potency of test compounds against various Tel-TK transformed Ba/F3 lines is determined as follows. Exponentially growing BaF3 Tel-TK cells are diluted in fresh medium to 75,000 cells/mL and seeded into 384-well plates (3750 cells/well) at 50 μL/well using a μFill liquid dispenser (BioTek, Winooski, Vt., USA). Duplicate plates are run for each cell line. Test and control compounds are serially diluted with DMSO and arrayed in a polypropylene 384-well plate. […] of compound is transferred into the assay plates using a pin-transfer device, and the plates are incubated at 37° C. (5% CO2) for 48 hours. 25 μL Britelite (Perkin Elmer) is added and luminescence is quantified using Analyst GT (Molecular Devices). Custom curve-fitting software is used to produce a logistic fit of percent cell viability as a function of the logarithm of inhibitor concentration. The IC50 is interpolated as the concentration of compound needed to reduce cell viability to 50% of a DMSO control. Parental Ba/F3 cells that are maintained and cultured in presence of IL-3 (1 ng/ml in final) are diluted in fresh medium containing IL-3 (1 ng/ml in final) to 75,000 cells/mL following the same procedure as described above.
# T1 sequence (P08069 999-1274 limits assumed): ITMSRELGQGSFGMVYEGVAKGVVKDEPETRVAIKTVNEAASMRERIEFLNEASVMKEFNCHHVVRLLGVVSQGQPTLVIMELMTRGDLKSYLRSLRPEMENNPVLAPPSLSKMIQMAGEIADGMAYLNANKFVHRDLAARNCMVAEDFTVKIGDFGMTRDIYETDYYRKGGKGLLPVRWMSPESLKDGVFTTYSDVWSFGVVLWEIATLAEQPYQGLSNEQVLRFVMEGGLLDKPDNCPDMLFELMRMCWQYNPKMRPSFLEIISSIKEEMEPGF
row,SMILES,IC50
1,"Cc1cc(Nc2nc(Nc3cc(C)c(C4CCN(Cc5ccccn5)CC4)cc3F)ncc2Cl)n[nH]1 [Compound 281, 5-chloro-N2-(2-fluoro-5-methyl-4-(1-(pyridin-2-ylmethyl)piperidin-4-yl)phenyl)-N4-(5-methyl-1H-pyrazol-3-yl)pyrimidine-2,4-diamine]",87 nM
2,"Cc1cc(Nc2nc(Nc3cc(C)c(C4CCN(CC5CC5(F)F)CC4)cc3F)ncc2C(F)(F)F)n[nH]1 (centres unmarked) [Compound 251, N^2-(4-(1-((2,2-difluorocyclopropyl)methyl)piperidin-4-yl)-2-fluoro-5-methylphenyl)-N^4-(5-methyl-1H-pyrazol-3-yl)-5-(trifluoromethyl)pyrimidine-2,4-diamine]",52 nM
3,"Cc1cc(Nc2nc(Nc3cc(C)c(C4CCN(Cc5nc(C(C)C)no5)CC4)cc3F)ncc2Cl)n[nH]1 [Compound 259, 5-Chloro-N^2-(2-fluoro-4-(1-((3-isopropyl-1,2,4-oxadiazol-5-yl)methyl)piperidin-4-yl)-5-methylphenyl)-N-(5-methyl-1H-pyrazol-3-yl)pyrimidine-2,4-diamine]",64 nM
4,"Cc1cc(Nc2nc(Nc3cc(C)c(C4CCN(CCCS(=O)(=O)N5CCC5)CC4)cc3C)ncc2Cl)n[nH]1 [Compound 214, N^2-(4-(1-(3-(azetidin-1-ylsulfonyl)propyl)piperidin-4-yl)-2,5-dimethylphenyl)-5-chloro-N^4-(5-methyl-1H-pyrazol-3-yl)pyrimidine-2,4-diamine]",40 nM
5,"CCN1CCC(c2cc(C)c(Nc3ncc(Cl)c(Nc4cc(C)[nH]n4)n3)cc2C(F)(F)F)CC1 [Compound 241, 5-chloro-N2-(4-(1-ethylpiperidin-4-yl)-2-methyl-5-(trifluoromethyl)phenyl)-N4-(5-methyl-1H-pyrazol-3-yl)pyrimidine-2,4-diamine]",68 nM
6,"Cc1cc(Nc2nc(Nc3cc(C)c(C4CCN(C(=O)C5CCN(C)CC5)CC4)cc3F)ncc2Cl)n[nH]1 [Compound 118, (4-(4-(5-chloro-4-(5-methyl-1H-pyrazol-3-ylamino)pyrimidin-2-ylamino)-5-fluoro-2-methylphenyl)piperidin-1-yl)(1-methylpiperidin-4-yl)methanone]",81 nM
7,"Cc1cc(Nc2nc(Nc3cc(C)c(C4CCN(C5CCN(S(C)(=O)=O)CC5)CC4)cc3F)ncc2Cl)n[nH]1 [Compound 278, 5-chloro-N2-(2-fluoro-5-methyl-4-(1′-(methylsulfonyl)-1,4′-bipiperidin-4-yl)phenyl)-N4-(5-methyl-1H-pyrazol-3-yl)pyrimidine-2,4-diamine]",9 nM
8,"CCNC(C)(C)C(=O)N1CCC(c2cc(C)c(Nc3ncc(Cl)c(Nc4cc(C)[nH]n4)n3)cc2C)CC1 [Compound 175, 1-(4-(4-(5-chloro-4-(5-methyl-1H-pyrazol-3-ylamino)pyrimidin-2-ylamino)-2,5-dimethylphenyl)piperidin-1-yl)-2-(ethylamino)-2-methylpropan-1-one]",5 nM
9,"Cc1cc(Nc2nc(Nc3cc(C)c(C4CCN(C(=O)CCN5CCOCC5)CC4)cc3C)ncc2Cl)n[nH]1 [Compound 225, 1-(4-(4-(5-Chloro-4-(5-methyl-1H-pyrazol-3-ylamino)pyrimidin-2-ylamino)-2,5-dimethylphenyl)piperidin-1-yl)-3-morpholinopropan-1-one]",17 nM
10,"Cc1cc(Nc2nc(Nc3cc(C)c(C4CCN(C(=O)CN5CCCC5)CC4)cc3F)ncc2Cl)n[nH]1 [Compound 99, 1-(4-(4-(5-chloro-4-(5-methyl-1H-pyrazol-3-ylamino)pyrimidin-2-ylamino)-5-fluoro-2-methylphenyl)piperidin-1-yl)-2-(pyrrolidin-1-yl)ethanone]",38 nM
11,"Cc1cc(Nc2nc(Nc3cc(C)c(C4CCN(CC(O)C(F)(F)F)CC4)cc3C)ncc2Cl)n[nH]1 (centres unmarked) [Compound 29, 3-(4-(4-(5-chloro-4-(5-methyl-1H-pyrazol-3-ylamino)pyrimidin-2-ylamino)-2,5-dimethylphenyl)piperidin-1-yl)-1,1,1-trifluoropropan-2-ol]",23 nM
12,"Cc1cc(Nc2nc(Nc3cc(C)c(C4CCN(C(=O)C5CN(C)C5)CC4)cc3F)ncc2Cl)n[nH]1 [Compound 117, (4-(4-(5-chloro-4-(5-methyl-1H-pyrazol-3-ylamino)pyrimidin-2-ylamino)-5-fluoro-2-methylphenyl)piperidin-1-yl)(1-methylazetidin-3-yl)methanone]",99 nM
13,"Cc1cc(Nc2nc(Nc3cc(C)c(C4CCN([C@H]5CC[C@H](O)CC5)CC4)cc3F)ncc2Cl)n[nH]1 [Compound 310, Trans-4-(4-(4-(5-chloro-4-(5-methyl-1H-pyrazol-3-ylamino)pyrimidin-2-ylamino)-5-fluoro-2-methylphenyl)piperidin-1-yl)cyclohexanol]",27 nM
14,"Cc1cc(Nc2nc(Nc3cc(C)c(C4CCN(C5CCNCC5)CC4)cc3F)ncc2Cl)n[nH]1 [Compound 276, N2-(4-(1,4′-bipiperidin-4-yl)-2-fluoro-5-methylphenyl)-5-chloro-N4-(5-methyl-1H-pyrazol-3-yl)pyrimidine-2,4-diamine]",437 nM
15,"Cc1cc(Nc2ncc(Cl)c(Nc3cc[nH]n3)n2)c(OC(C)C)cc1C1CCN(C)CC1 [Compound 161, 5-chloro-N2-(2-isopropoxy-5-methyl-4-(1-methylpiperidin-4-yl)phenyl)-N4-(1H-pyrazol-3-yl)pyrimidine-2,4-diamine]",332 nM
16,"Cc1cc(Nc2nc(Nc3cc(C)c(C4CCN(C(C)C(N)=O)CC4)cc3F)ncc2C(F)(F)F)n[nH]1 (centres unmarked) [Compound 53, 2-(4-(5-fluoro-2-methyl-4-(4-(5-methyl-1H-pyrazol-3-ylamino)-5-(trifluoromethyl)pyrimidin-2-ylamino)phenyl)piperidin-1-yl)propanamide]",78 nM
17,"Cc1cc(Nc2nc(Nc3cc(C)c(C4CCN(C(=O)[C@@H]5C(O)CCN5C)CC4)cc3F)ncc2Cl)n[nH]1 (stereo in doubt) [Compound 139, (4-(4-(5-chloro-4-(5-methyl-1H-pyrazol-3-ylamino)pyrimidin-2-ylamino)-5-fluoro-2-methylphenyl)piperidin-1-yl)((2S,3R)-3-hydroxy-1-methylpyrrolidin-2-yl)methanone]",175 nM
18,"CNC(=O)CN1CCC(c2cc(C)c(Nc3ncc(Cl)c(Nc4cc(C)[nH]n4)n3)cc2C)CC1 [Compound 38, 2-(4-(4-(5-chloro-4-(5-methyl-1H-pyrazol-3-ylamino)pyrimidin-2-ylamino)-2,5-dimethylphenyl)piperidin-1-yl)-N-methylacetamide]",10 nM
19,"CCC(C(N)=O)N1CCC(c2cc(C)c(Nc3ncc(Cl)c(Nc4cc(C)[nH]n4)n3)cc2C)CC1 (centres unmarked) [Compound 185, 2-(4-(4-(5-chloro-4-(5-methyl-1H-pyrazol-3-ylamino)pyrimidin-2-ylamino)-2,5-dimethylphenyl)piperidin-1-yl)butanamide]",9 nM
20,"CNC(=O)C(C)N1CCC(c2cc(C)c(Nc3ncc(Cl)c(Nc4cc(C)[nH]n4)n3)cc2C)CC1 (centres unmarked) [Compound 52, 2-(4-(4-(5-chloro-4-(5-methyl-1H-pyrazol-3-ylamino)pyrimidin-2-ylamino)-2,5-dimethylphenyl)piperidin-1-yl)-N-methylpropanamide]",6 nM
21,"COc1cc(Nc2ncc(Cl)c(Nc3cc(C)[nH]n3)n2)c(C)cc1C1CCN(C)CC1 [Compound 219, 5-chloro-N2-(5-methoxy-2-methyl-4-(1-methylpiperidin-4-yl)phenyl)-N4-(5-methyl-1H-pyrazol-3-yl)pyrimidine-2,4-diamine]",9 nM
22,"Cc1cc(Nc2nc(Nc3cc(C)c(C4CCN(C5CCSCC5)CC4)cc3C)ncc2Cl)n[nH]1 [Compound 174, 5-chloro-N2-(2,5-dimethyl-4-(1-(tetrahydro-2H-thiopyran-4-yl)piperidin-4-yl)phenyl)-N4-(5-methyl-1H-pyrazol-3-yl)pyrimidine-2,4-diamine]",8 nM
23,"Cc1cc(Nc2ncc(Cl)c(Nc3cc(C4CC4)[nH]n3)n2)c(F)cc1C1CCN(C2CC2)CC1 [Compound 255, 5-chloro-N4-(5-cyclopropyl-1H-pyrazol-3-yl)-N2-(4-(1-cyclopropylpiperidin-4-yl)-2-fluoro-5-methylphenyl)pyrimidine-2,4-diamine]",228 nM
